In article PMC11638965, “Leveraging Dual-Ligase Recruitment to Enhance Protein Degradation via a Heterotrivalent Proteolysis Targeting Chimera” (Journal of the American Chemical Society, 2024):
Values joined by “and” are separate entries in the source; they are usually repeats but may differ in a detail not shown here. Identical values can stand only once.

Experiments:
[1] = target: T1, BRD2 (Homo sapiens, UniProt P25440); assay: Live cell kinetic HiBiT degradation assay, HiBiT-BRD2 HEK293 cells; assay type: cell-based; conditions: for λmax BRD2 (degradation rate): HiBiT-BRD2 knock-in HEK293 cells
T1 construct: HiBiT, is appended to the N-terminus of endogenous BRD2, BRD3, and BRD4; endogenous in cells
T1 sequence (P25440 whole entry): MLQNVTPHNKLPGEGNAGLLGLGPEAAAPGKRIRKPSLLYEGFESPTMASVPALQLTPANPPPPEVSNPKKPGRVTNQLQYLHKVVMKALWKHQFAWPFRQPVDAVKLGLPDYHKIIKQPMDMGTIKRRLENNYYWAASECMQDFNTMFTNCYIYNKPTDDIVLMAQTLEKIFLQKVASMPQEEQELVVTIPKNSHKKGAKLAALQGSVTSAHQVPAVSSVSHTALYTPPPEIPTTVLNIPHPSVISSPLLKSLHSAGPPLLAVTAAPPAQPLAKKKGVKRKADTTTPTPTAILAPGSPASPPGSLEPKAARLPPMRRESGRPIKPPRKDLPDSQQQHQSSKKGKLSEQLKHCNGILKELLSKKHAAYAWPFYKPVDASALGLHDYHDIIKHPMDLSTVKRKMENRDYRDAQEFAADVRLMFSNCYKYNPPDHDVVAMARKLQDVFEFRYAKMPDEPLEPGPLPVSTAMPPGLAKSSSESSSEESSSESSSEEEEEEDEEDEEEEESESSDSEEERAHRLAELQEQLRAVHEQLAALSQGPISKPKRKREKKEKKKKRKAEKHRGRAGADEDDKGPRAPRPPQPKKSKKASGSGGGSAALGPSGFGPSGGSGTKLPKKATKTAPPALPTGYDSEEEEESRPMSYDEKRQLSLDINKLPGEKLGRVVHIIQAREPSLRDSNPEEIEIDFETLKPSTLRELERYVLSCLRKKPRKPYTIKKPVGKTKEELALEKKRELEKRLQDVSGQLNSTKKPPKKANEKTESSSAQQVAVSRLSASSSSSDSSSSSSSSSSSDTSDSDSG
Procedure: (§1) HEK293 HiBiT-BRD2 (LgBiT stable), HEK293 HiBiT-BRD3 (LgBiT stable), and HEK293 HiBiT-BRD4 (LgBiT stable) were created using CRISPR/Cas9 to insert at HiBiT tag at the N-terminal genomic loci of BRD2, BRD3, or BRD4 in a cell line stably expressing LgBiT protein as described previously.[23]
(§2) For kinetic degradation experiments, HEK293 HiBiT-BRD2, 3, or 4 (LgBiT stable) cells and HEK293 HiBiT-BRD4 (LgBiT) CRBN KO and VHL KO cells were plated at 20,000 cells/well in DMEM +10% FBS in white 96-well tissue culture plates and allowed to adhere overnight. The next day, media was removed and 90 μL of prewarmed CO2-independent medium (Gibco) containing Endurazine (Promega) at a 1:100 dilution from stock was added. Plates were incubated at 37 °C for 3 h to allow luminescence to equilibrate. A threefold dilution series of each PROTAC at 10x the desired final concentration was prepared (with the amount of DMSO in each treatment condition kept constant). After luminescence equilibration, a preread luminescence measurement was taken (prior to compound addition) to allow for baseline normalization to account for possible plating differences. Cells were then treated with 10 μL of the prepared PROTAC dilution series (in triplicate or quadruplicate). Treated plates were placed in a GloMax Discover luminometer (Promega) prewarmed to 37 °C and luminescence measurements were obtained every 7 min for 24 h. Kinetic degradation plots were obtained by first normalizing time course luminescence readings in each well to the preread measurement, then to the average value of the DMSO only control at each time point. Data was analyzed using GraphPad Prism (version 8) and excel. Dmax values were identified as the lowest luminescence reading in each well. Rate constant values were calculated using a one phase exponential decay Y = (Y0-Plateau) e(K*^X) + Plateau using Prism (Y0 constrained to 1). Dmax 50 values were calculated by plotting Dmax as a function of concentration, then fitting plots using the following equation: [drawing 1] to determine IC50.

[2] = target: T2, BRD3 (Homo sapiens, UniProt Q15059); assay: Live cell kinetic HiBiT degradation assay, HiBiT-BRD3 HEK293 cells; assay type: cell-based; conditions: for DC50: HiBiT-BRD3 CRISPR knock-in HEK293 cells, live cell kinetic degradation, 24 h, read-out: Dmax 50 BRD3; for λmax BRD3 (degradation rate): HiBiT-BRD3 knock-in HEK293 cells
T2 construct: HiBiT, is appended to the N-terminus of endogenous BRD2, BRD3, and BRD4; endogenous in cells
T2 sequence (Q15059 whole entry): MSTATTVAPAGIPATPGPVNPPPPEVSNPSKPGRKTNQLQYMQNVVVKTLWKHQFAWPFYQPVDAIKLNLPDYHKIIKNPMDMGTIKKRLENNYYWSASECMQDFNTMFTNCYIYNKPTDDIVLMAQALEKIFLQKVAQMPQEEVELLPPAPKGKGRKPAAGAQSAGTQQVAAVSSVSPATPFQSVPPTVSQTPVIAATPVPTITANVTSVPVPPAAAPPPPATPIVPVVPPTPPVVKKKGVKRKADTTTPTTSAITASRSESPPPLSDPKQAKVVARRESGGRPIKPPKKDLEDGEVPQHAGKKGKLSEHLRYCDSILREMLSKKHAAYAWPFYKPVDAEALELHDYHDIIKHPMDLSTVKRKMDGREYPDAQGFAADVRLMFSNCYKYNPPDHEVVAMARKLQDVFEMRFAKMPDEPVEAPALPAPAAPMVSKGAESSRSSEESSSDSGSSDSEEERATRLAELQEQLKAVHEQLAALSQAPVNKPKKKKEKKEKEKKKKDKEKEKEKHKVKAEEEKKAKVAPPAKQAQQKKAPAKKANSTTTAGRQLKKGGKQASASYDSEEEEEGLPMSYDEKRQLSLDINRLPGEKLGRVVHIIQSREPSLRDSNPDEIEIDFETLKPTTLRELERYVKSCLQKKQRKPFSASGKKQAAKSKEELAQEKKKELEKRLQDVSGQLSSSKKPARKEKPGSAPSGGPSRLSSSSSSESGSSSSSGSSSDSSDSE
Procedure: as §1, §2

[3] = target: T1, BRD2; assay: Western blot dose-response degradation in HEK293 cells; assay type: cell-based; conditions: 6 h; for DC50: mean ± S.E.M. of three experiments, values marked b mean ± S.D. of two
Procedure: (§3) HEK293 cells were obtained from ATCC. HEK293 was cultured in DMEM supplemented with 10% (v/v) fetal bovine serum (FBS), 1% […] and 1% (v/v) penicillin/streptomycin (pen/strep) at 37 °C, 5% CO2, and 95% humidity.
(§4) HEK293 cells were plated at a density of 5 × 10^5 cells per well of a six well plate a day prior to initiation of the experiment. Compounds were dissolved to a 10 mM concentrated stock solution in DMSO from which the compounds were further diluted to a working concentration range of 1 μM to 100 pM in DMEM and was subsequently added to cells at the initiation of the experiment. An additional vehicle control was added to cells alongside compound treatments. Cells were left to incubate with compound for 6 h at 37 °C, 5% CO2, and 95% humidity. Cells were then subsequently washed twice with PBS before being harvested in RIPA buffer supplemented with protease inhibitor cocktail and Benzonase Nuclease before being store at −20 °C.
(§5) Protein concentration was determined using the BCA assay. Samples were then prepared in LDS buffer containing 5% 1 M DTT and subsequently loaded onto NuPAGE 4–12% Bis-Tris Midi gels, followed by the transfer of the proteins onto nitrocellulose membranes. The membranes were blocked for 1 h prior to incubation with the primary antibodies using 5% Milk TBST. Membranes were incubated at 4 °C in either BRD4(Ab128874), BRD3(Ab50818), BRD2(Ab139690), VHL(CST#68547) and CRBN(CST#71810) primary antibody overnight. Following overnight incubation, the membranes were incubated with complementary IRDye 800CW secondary antibody and a hFAB Rhodamine Anti-Tubulin Primary Antibody (loading control) for 1 h and then imaged with a Bio-Rad imager. All Western blots were analyzed for band intensities using Image Lab (Bio-Rad). The data extracted from these blots were then plotted and analyzed using Prism (v. 10.2.2, GraphPad). Linear regression curve fitting was used to calculate pDC50 values. The standard deviation of the pDC50 was calculated for all compounds that had two independent repeats and the standard error of the mean calculated for all compounds that had three independent repeats. All Western blotting figures were developed in Adobe illustrator.

[4] = target: T2, BRD3; assay: as above; assay type: cell-based; conditions: 6 h, mean ± S.E.M. of three experiments, values marked b mean ± S.D. of two
Procedure: as §3, §4, §5

[5] = target: T3, BRD4^Long (Homo sapiens, UniProt O60885); assay: as above; assay type: cell-based; conditions: HEK293 cells, 6 h, Western blot; mean ± S.E.M. of three experiments, values marked b mean ± S.D. of two
T3 construct: Western blot data for BET, CRBN and VHL protein levels; endogenous in cells; host or cells: HEK293 (ATCC)
Procedure: as §3, §4, §5

[6] = target: T4, BRD4^Short (Homo sapiens, UniProt O60885); assay: as above; assay type: cell-based; conditions: 6 h, mean ± S.E.M. of three experiments, values marked b mean ± S.D. of two
T4 construct: Western blot data for BET, CRBN and VHL protein levels; endogenous in cells; host or cells: HEK293 (ATCC)
Procedure: as §3, §4, §5

[7] = test system: K562 cells; assay: Cell viability assay (CellTiter-Glo); assay type: cell-based, human; conditions: Homo sapiens; WT K562, 5.12 pM to 10 uM, n = 3 (Table S4)
Procedure: (§6) Cells were seeded in 96-well plates at a cell density of […], and each treatment was performed in biological triplicates. Cell viability was assessed using the CellTiter-Glo assay (CellTiter-Glo Luminescent Cell Viability Assay, Promega G7573) according to manufacturer instructions. Luminescence signal was measured on a Multilabel Plate Reader Platform Victor X3 model 2030 (PerkinElmer). Survival curves and EC50 values were determined using GraphPad Prism v.10.0.3 by fitting a nonlinear regression to the log10-transformed drug concentration and the relative viability after normalization of each data point to the mean luminescence of the lowest drug concentration.

[8] = test system: KBM7 cells; assay: Cell viability assay (CellTiter-Glo); assay type: cell-based, human; conditions: Homo sapiens, KBM-7; WT KBM7, 5.12 pM to 10 uM, n = 3 (Table S4)
Procedure: as §6

[9] = target: CRBN (Homo sapiens, UniProt Q96SW2); assay: Western blot dose-response degradation in HEK293 cells; assay type: cell-based; set-up: Western blot data for BET, CRBN and VHL protein levels; endogenous in cells; host or cells: HEK293 (ATCC); conditions: for fold weaker degradation of CRBN compared with aniline tethered matched pair: 31 and 32 compared with 23 and 27, respectively, DC50, HEK293 Western blot; for DC50: HEK293 cells, 6 h, Western blot, mean ± S.E.M. of three experiments, values marked b mean ± S.D. of two
CRBN, sequence (Q96SW2 whole entry): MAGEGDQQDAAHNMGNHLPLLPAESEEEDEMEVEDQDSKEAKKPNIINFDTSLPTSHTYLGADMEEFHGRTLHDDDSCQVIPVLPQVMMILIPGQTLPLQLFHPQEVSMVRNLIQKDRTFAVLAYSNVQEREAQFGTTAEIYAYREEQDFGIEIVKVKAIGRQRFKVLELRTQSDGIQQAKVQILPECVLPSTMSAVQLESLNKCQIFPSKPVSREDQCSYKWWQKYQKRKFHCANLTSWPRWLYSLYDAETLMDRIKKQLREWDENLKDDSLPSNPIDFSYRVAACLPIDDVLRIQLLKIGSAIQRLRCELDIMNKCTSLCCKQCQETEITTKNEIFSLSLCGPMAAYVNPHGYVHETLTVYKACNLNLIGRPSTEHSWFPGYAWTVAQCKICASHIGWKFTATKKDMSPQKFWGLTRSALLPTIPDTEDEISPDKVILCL
Procedure: as §3, §4, §5

| λmax BRD2 (degradation rate) [1] | DC50 [2] [nM] | λmax BRD3 (degradation rate) [2] [h⁻¹] | DC50 [3] [nM] | DC50 [4] [nM] | DC50 [5] [nM] | DC50 [6] [nM] | EC50 [7] [nM] | fold weaker degradation of CRBN compared with aniline tethered matched pair [9] [fold] | DC50 [9] [nM] | DC50 ([1]; HiBiT-BRD2 CRISPR knock-in HEK293 cells, live cell kinetic degradation, 24 h, read-out: Dmax 50 BRD2) [nM] | Dmax [3] [%] | onset of the hook effect, BRD2 [3] [µM] | Structure (SMILES) | EC50 [8] [nM] |
| --- | --- | --- | --- | --- | --- | --- | --- | --- | --- | --- | --- | --- | --- | --- |
| 1.90 h⁻¹ and 1.9 h⁻¹ | 6.2 | 2.36 | 52 ± 9.4 | 14 ± 2.9 | 14 ± 3.9 | 15 ± 2.4 | 494 | 2.9 | 580 ± 240 |  |  |  | Cc1ncsc1-c1ccc(CNC(=O)[C@@H]2C[C@@H](O)CN2C(=O)[C@@H](NC(=O)COCC(C)(COCCOCCOCCOC(=O)C[C@@H]2N=C(c3ccc(Cl)cc3)c3c(sc(C)c3C)-n3c(C)nnc32)COCCOCCOCCN2CCN(c3cccc4c3C(=O)N(C3CCC(=O)NC3=O)C4=O)CC2)C(C)(C)C)cc1 (mixture of isomers) [AB3029 (31), (17S)-11-((2-(2-(2-(4-(2-(2,6-dioxopiperidin-3-yl)-1,3-dioxoisoindolin-4-yl)piperazin-1-yl)ethoxy)ethoxy)ethoxy)methyl)-17-((2S,4R)-4-hydroxy-2-((4-(4-methylthiazol-5-yl)benzyl)carbamoyl)pyrrolidine-1-carbonyl)-11,18,18-trimethyl-15-oxo-3,6,9,13-tetraoxa-16-azanonadecyl 2-((S)-4-(4-chlorophenyl)-2,3,9-trimethyl-6H-thieno[3,2-f][1,2,4]triazolo[4,3-a][1,4]diazepin-6-yl)acetate] | 294 |
| 2.04 h⁻¹ | 1.7 | 2.97 | 28 ± 7.3 | 6.4 ± 1.9 | 7.3 ± 2.1 | 9.4 ± 1.9 | 192 | 3.7 | 730 ± 270 | 25 |  |  | Cc1ncsc1-c1ccc(CNC(=O)[C@@H]2C[C@@H](O)CN2C(=O)[C@@H](NC(=O)COCC(C)(COCCOCCOCCOC(=O)C[C@@H]2N=C(c3ccc(Cl)cc3)c3c(sc(C)c3C)-n3c(C)nnc32)COCCOCCOCCN2CCN(c3cc4c(cc3F)C(=O)N(C3CCC(=O)NC3=O)C4=O)CC2)C(C)(C)C)cc1 (mixture of isomers) [AB3030 (32), (17S)-11-((2-(2-(2-(4-(2-(2,6-dioxopiperidin-3-yl)-6-fluoro-1,3-dioxoisoindolin-5-yl)piperazin-1-yl)ethoxy)ethoxy)ethoxy)methyl)-17-((2S,4R)-4-hydroxy-2-((4-(4-methylthiazol-5-yl)benzyl)carbamoyl)pyrrolidine-1-carbonyl)-11,18,18-trimethyl-15-oxo-3,6,9,13-tetraoxa-16-azanonadecyl 2-((S)-4-(4-chlorophenyl)-2,3,9-trimethyl-6H-thieno[3,2-f][1,2,4]triazolo[4,3-a][1,4]diazepin-6-yl)acetate] | 78 |
| 1.12 h⁻¹ | 5.7 | 2.06 | 58 ± 16 | 11 ± 4.6 | 2.5 ± 0.5 | 11 ± 3.7 | 212 |  | 200 ± 110 |  |  |  | Cc1ncsc1-c1ccc(CNC(=O)[C@@H]2C[C@@H](O)CN2C(=O)[C@@H](NC(=O)COCC(C)(COCCOCCOCCNc2cccc3c2C(=O)N(C2CCC(=O)NC2=O)C3=O)COCCOCCOCCOC(=O)C[C@@H]2N=C(c3ccc(Cl)cc3)c3c(sc(C)c3C)-n3c(C)nnc32)C(C)(C)C)cc1 (mixture of isomers) [AB3062 (23), (17S)-11-((2-(2-(2-((2-(2,6-dioxopiperidin-3-yl)-1,3-dioxoisoindolin-4-yl)amino)ethoxy)ethoxy)ethoxy)methyl)-17-((2S,4R)-4-hydroxy-2-((4-(4-methylthiazol-5-yl)benzyl)carbamoyl)pyrrolidine-1-carbonyl)-11,18,18-trimethyl-15-oxo-3,6,9,13-tetraoxa-16-azanonadecyl 2-((S)-4-(4-chlorophenyl)-2,3,9-trimethyl-6H-thieno[3,2-f][1,2,4]triazolo[4,3-a][1,4]diazepin-6-yl)acetate] | 104 |
|  |  |  | 1 ± 0.2 | 3.5 ± 0.3 | 2.2 ± 0.1 | 2.9 ± 0.3 |  |  | 113 ± 3.2 |  | ~80 | 1 | Cc1ncsc1-c1ccc(CNC(=O)[C@@H]2C[C@@H](O)CN2C(=O)[C@@H](NC(=O)COCC(COCCOCCOCCNc2cc3c(cc2F)C(=O)N(C2CCC(=O)NC2=O)C3=O)(COCCOCCOCCOC(=O)C[C@@H]2N=C(c3ccc(Cl)cc3)c3c(sc(C)c3C)-n3c(C)nnc32)COCCOCCOCCOC(=O)C[C@@H]2N=C(c3ccc(Cl)cc3)c3c(sc(C)c3C)-n3c(C)nnc32)C(C)(C)C)cc1 (mixture of isomers) [AB3124 (86)] |  |
